Laboratory results as given in patent US20240252488A1 (KOREA RESEARCH INSTITUTE OF CHEMICAL TECHNOLOGY, priority 2020, published 2024).

Assays:
MLKL [1] = biological target: T1, MLKL (Homo sapiens, UniProt Q8NB16); experiment: MLKL degradation assay in HepG2 cell line (western blot); format: cell-based; set-up: endogenous in cells; host or cells: HepG2 or HaCaT; conditions: cell line not given; for Degradation assay (Degradation %) 1 μM: compound 1 μM; for Degradation assay (Degradation %) 10 μM: compound 10 μM
T1 sequence (Q8NB16 1-471): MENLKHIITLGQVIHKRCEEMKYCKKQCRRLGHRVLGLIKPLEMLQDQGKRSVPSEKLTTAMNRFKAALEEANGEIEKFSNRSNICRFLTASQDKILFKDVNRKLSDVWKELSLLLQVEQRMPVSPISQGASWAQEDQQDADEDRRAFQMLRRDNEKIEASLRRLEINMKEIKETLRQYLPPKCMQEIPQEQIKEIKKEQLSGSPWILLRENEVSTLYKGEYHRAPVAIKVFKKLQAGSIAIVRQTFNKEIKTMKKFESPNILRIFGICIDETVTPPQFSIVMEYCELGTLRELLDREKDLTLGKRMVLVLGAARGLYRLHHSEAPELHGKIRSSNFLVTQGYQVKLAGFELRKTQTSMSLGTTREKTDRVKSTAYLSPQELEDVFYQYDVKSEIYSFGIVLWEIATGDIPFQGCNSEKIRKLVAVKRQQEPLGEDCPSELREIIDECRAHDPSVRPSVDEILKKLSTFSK
Method in brief: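 HepG2 cells were treated 20-24 h at 37 °C with compound at 1 or 10 μM final. RIPA lysates were normalized by BCA, and 10-15 μg protein per lane was resolved by SDS-PAGE. MLKL was detected by western blot with chemiluminescence.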

FADD−/− Jurkat cells = experiment: Necroptosis inhibition assay, TNF-α-induced necroptosis (CellTiter-Glo 2.0); format: cell-based, human; conditions: TNF-α 15 ng/mL; for Necroptosis inhibition assay (Rescue %) 1 μM: compound 1 μM; for Necroptosis inhibition assay (Rescue %) 10 μM: compound 10 μM
Method in brief: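 FADD−/− Jurkat cells preincubated 30 min at room temperature with compound at 0.1, 1 and 10 μM final, then stimulated with TNF-α (15 ng/mL final) for 20–24 h at 37 °C, 5% CO2. Viability read as ATP luminescence; cytotoxicity and necroptosis inhibition rate calculated from luminescence values.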

MLKL [2] = biological target: T1, MLKL; experiment: Measurement of binding affinity with MLKL receptor (competitive binding assay, Kd); set-up: made in house; host or cells: HEK 293 cell line (T7 phage in E. coli BL21-derived host is also described)
Method in brief: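 Kd from an immobilized-ligand competition format: the DNA-tagged kinase from HEK 293 expression is eluted and quantified by qPCR. Compounds added from 111× DMSO stocks, final DMSO 0.9%.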

Degradation assay (Degradation %) 1 μM (MLKL [1]) [%] | Degradation assay (Degradation %) 10 μM (MLKL [1]) [%] | Kd (MLKL [2]) [nM] | SMILES | Necroptosis inhibition assay (Rescue %) 1 μM (FADD−/− Jurkat cells) [%] | Necroptosis inhibition assay (Rescue %) 10 μM (FADD−/− Jurkat cells) [%]
85.77 | 66.9 | 1.6 | Nc1ncc(-c2cnn(C3CCN(CCOC4CCN(C(=O)CCc5cccc6c5CN(C5CCC(=O)NC5=O)C6=O)CC4)CC3)c2)nc1C(=O)O[C@@H](C(=O)Nc1ccc(F)cc1)c1ccccc1 (stereo partly drawn) [TDH-387, (R)-2-((4-fluorophenyl)amino)-2-oxo-1-phenylethyl 3-amino-6-(1-(1-(2-((1-(3-(2-(2,6-dioxopiperidin-3-yl)-1-oxoisoindolin-4-yl)propanoyl)piperidin-4-yl)oxy)ethyl)piperidin-4-yl)-1H-pyrazol-4-yl)pyrazine-2-carboxylate] | 37.82 | 25.00
68.53 | 80.04 | 2.3 | Nc1ncc(-c2cnn(C3CCN(C(=O)C4CCN(C(=O)CCc5cccc6c5CN(C5CCC(=O)NC5=O)C6=O)CC4)CC3)c2)nc1C(=O)O[C@@H](C(=O)Nc1ccc(F)cc1)c1ccccc1 (stereo partly drawn) [TDH-388, (R)-2-((4-fluorophenyl)amino)-2-oxo-1-phenylethyl 3-amino-6-(1-(1-(1-(3-(2-(2,6-dioxopiperidin-3-yl)-1-oxoisoindolin-4-yl)propanoyl)piperidine-4-carbonyl)piperidin-4-yl)-1H-pyrazol-4-yl)pyrazine-2-carboxylate] | 22.66 | 22.49
80.07 | 93.00 | 2.6 | Nc1ncc(-c2cnn(C3CCN(CC4CN(C(=O)COc5ccc6c(c5)C(=O)N(C5CCC(=O)NC5=O)C6=O)CCO4)CC3)c2)nc1C(=O)O[C@@H](C(=O)Nc1ccc(F)cc1)c1ccccc1 (stereo partly drawn) [TDH-390, (R)-2-((4-fluorophenyl)amino)-2-oxo-1-phenylethyl 3-amino-6-(1-(1-((4-(2-((2-(2,6-dioxopiperidin-3-yl)-1,3-dioxoisoindolin-5-yl)oxy)acetyl)morpholin-2-yl)methyl)piperidin-4-yl)-1H-pyrazol-4-yl)pyrazine-2-carboxylate] | 46.50 | 36.13
73.39 | 82.10 | 0.99 | Nc1ncc(-c2cnn(C3CCN(C(=O)COC4CCN(C(=O)COc5cccc6c5C(=O)N(C5CCC(=O)NC5=O)C6=O)CC4)CC3)c2)nc1C(=O)O[C@@H](C(=O)Nc1ccc(F)cc1)c1ccccc1 (stereo partly drawn) [TDH-393, (R)-2-((4-fluorophenyl)amino)-2-oxo-1-phenylethyl 3-amino-6-(1-(1-(2-((1-(2-((2-(2,6-dioxopiperidin-3-yl)-1,3-dioxoisoindolin-4-yl)oxy)acetyl)piperidin-4-yl)oxy)acetyl)piperidin-4-yl)-1H-pyrazol-4-yl)pyrazine-2-carboxylate] | 27.21 | 38.01
60.83 | 94.76 | 2.8 | Nc1ncc(-c2cnn(C3CCN(C(=O)COC4CCN(C(=O)COc5ccc6c(c5)C(=O)N(C5CCC(=O)NC5=O)C6=O)CC4)CC3)c2)nc1C(=O)O[C@@H](C(=O)Nc1ccc(F)cc1)c1ccccc1 (stereo partly drawn) [TDH-394, (R)-2-((4-fluorophenyl)amino)-2-oxo-1-phenylethyl 3-amino-6-(1-(1-(2-((1-(2-((2-(2,6-dioxopiperidin-3-yl)-1,3-dioxoisoindolin-5-yl)oxy)acetyl)piperidin-4-yl)oxy)acetyl)piperidin-4-yl)-1H-pyrazol-4-yl)pyrazine-2-carboxylate] | 47.22 | 53.54

Further lines, the compound ahead of its results:

SMILES | Degradation assay (Degradation %) 1 μM (MLKL [1]) [%] | Degradation assay (Degradation %) 10 μM (MLKL [1]) [%] | Kd (MLKL [2]) [nM] | Necroptosis inhibition assay (Rescue %) 1 μM (FADD−/− Jurkat cells) [%] | Necroptosis inhibition assay (Rescue %) 10 μM (FADD−/− Jurkat cells) [%]
Nc1ncc(-c2cnn(C3CCN(CCCN4CCN(C(=O)CCc5cccc6c5C(=O)N(C5CCC(=O)NC5=O)C6=O)CC4)CC3)c2)nc1C(=O)O[C@@H](C(=O)Nc1ccc(F)cc1)c1ccccc1 (stereo partly drawn) [TDH-382, (R)-2-((4-fluorophenyl)amino)-2-oxo-1-phenylethyl 3-amino-6-(1-(1-(3-(4-(3-(2-(2,6-dioxopiperidin-3-yl)-1,3-dioxoisoindolin-4-yl)propanoyl)piperazin-1-yl)propyl)piperidin-4-yl)-1H-pyrazol-4-yl)pyrazine-2-carboxylate] | 81.82 | 81.68 | 0.42 | 59.24 | 22.12
Nc1ncc(-c2cnn(C3CCN(CCCN4CCN(C(=O)CCc5ccc6c(c5)C(=O)N(C5CCC(=O)NC5=O)C6=O)CC4)CC3)c2)nc1C(=O)O[C@@H](C(=O)Nc1ccc(F)cc1)c1ccccc1 (stereo partly drawn) [TDH-383, (R)-2-((4-fluorophenyl)amino)-2-oxo-1-phenylethyl 3-amino-6-(1-(1-(3-(4-(3-(2-(2,6-dioxopiperidin-3-yl)-1,3-dioxoisoindolin-5-yl)propanoyl)piperazin-1-yl)propyl)piperidin-4-yl)-1H-pyrazol-4-yl)pyrazine-2-carboxylate] | 79.04 | 81.95 | 0.42 | 46.33 | 25.19
Nc1ncc(-c2cnn(C3CCN(CC4CCN(C(=O)CCc5cccc6c5CN(C5CCC(=O)NC5=O)C6=O)CC4)CC3)c2)nc1C(=O)O[C@@H](C(=O)Nc1ccc(F)cc1)c1ccccc1 (stereo partly drawn) [TDH-384, (R)-2-((4-fluorophenyl)amino)-2-oxo-1-phenylethyl 3-amino-6-(1-(1-((1-(3-(2-(2,6-dioxopiperidin-3-yl)-1-oxoisoindolin-4-yl)propanoyl)piperidin-4-yl)methyl)piperidin-4-yl)-1H-pyrazol-4-yl)pyrazine-2-carboxylate] | 81.59 | 58.63 | 1.9 | 39.08 | 9.67
Nc1ncc(-c2cnn(C3CCN(CCC4CCN(C(=O)CCc5cccc6c5CN(C5CCC(=O)NC5=O)C6=O)CC4)CC3)c2)nc1C(=O)O[C@@H](C(=O)Nc1ccc(F)cc1)c1ccccc1 (stereo partly drawn) [TDH-385, (R)-2-((4-fluorophenyl)amino)-2-oxo-1-phenylethyl 3-amino-6-(1-(1-(2-(1-(3-(2-(2,6-dioxopiperidin-3-yl)-1-oxoisoindolin-4-yl)propanoyl)piperidin-4-yl)ethyl)piperidin-4-yl)-1H-pyrazol-4-yl)pyrazine-2-carboxylate] | 94.85 | 85.11 | 0.76 | 53.62 | 14.09
Nc1ncc(-c2cnn(C3CCN(CCCN4CCN(C(=O)CCc5cccc6c5CN(C5CCC(=O)NC5=O)C6=O)CC4)CC3)c2)nc1C(=O)O[C@@H](C(=O)Nc1ccc(F)cc1)c1ccccc1 (stereo partly drawn) [TDH-386, (R)-2-((4-fluorophenyl)amino)-2-oxo-1-phenylethyl 3-amino-6-(1-(1-(3-(4-(3-(2-(2,6-dioxopiperidin-3-yl)-1-oxoisoindolin-4-yl)propanoyl)piperazin-1-yl)propyl)piperidin-4-yl)-1H-pyrazol-4-yl)pyrazine-2-carboxylate] | 79.68 | 71.14 | 0.93 | 34.89 | 20.76
